Data reported in patent US20240368127A1, “HSD17B13 INHIBITORS AND USES THEREOF” (FL2022-001, Inc., priority 2021, published 2024).

Biological target: T1, Recombinant human HSD17B13 enzyme (Homo sapiens, UniProt Q7Z5P4)
T1 sequence (Q7Z5P4 20-300): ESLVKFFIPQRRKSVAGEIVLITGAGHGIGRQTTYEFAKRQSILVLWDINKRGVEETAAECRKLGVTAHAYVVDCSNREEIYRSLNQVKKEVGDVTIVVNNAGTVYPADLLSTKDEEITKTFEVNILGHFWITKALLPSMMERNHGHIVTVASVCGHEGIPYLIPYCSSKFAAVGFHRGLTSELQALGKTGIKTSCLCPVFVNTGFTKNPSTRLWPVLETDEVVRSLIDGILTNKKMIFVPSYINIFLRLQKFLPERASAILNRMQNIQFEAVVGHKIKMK
Test: HSD17b13 NAD(P)H-Glo biochemical assay
Conditions: 50 μM estradiol, 1 mM NAD+, 37° C. for 3 hours; read-out: HSD17β13 IC50
How it was run: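 Enzyme preincubated with inhibitor 20 min at RT in 20 mM Tris pH7.4, 0.002% Tween-20, 0.02% BSA, then reacted 3 h at 37° C with 50 μM estradiol and 1 mM NAD+ (final). NADH formation read by NAD(P)H-Glo luminescence after 1 h at RT.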

IC50 | Compound
≤ 100 nM | Cn1nc(-c2cc(C(F)(F)F)c(F)c(O)c2F)c2cnc(N3CCOC[C@@H]3CC3CCCCC3)nc21 [Compound 15.05, (S)-3-(6-(3-(Cyclohexylmethyl)morpholino)-1-methyl-1H-pyrazolo[3,4-d]pyrimidin-3-yl)-2,6-difluoro-5-(trifluoromethyl)phenol]
≤ 100 nM | Cn1nc(-c2cc(C(F)(F)F)c(F)c(O)c2F)c2cnc(N3CCOCC3Cc3ccccn3)nc21 (centres unmarked) [Compound 15.06, 2,6-Difluoro-3-(1-methyl-6-(3-(pyridin-2-ylmethyl)morpholino)-1H-pyrazolo[3,4-d]pyrimidin-3-yl)-5-(trifluoromethyl)phenol]
≤ 100 nM | Cn1nc(-c2cc(C(F)(F)F)c(F)c(O)c2F)c2cnc(N3CCOCC3Cc3cccnc3)nc21 (centres unmarked) [Compound 15.07, 2,6-Difluoro-3-(1-methyl-6-(3-(pyridin-3-ylmethyl)morpholino)-1H-pyrazolo[3,4-d]pyrimidin-3-yl)-5-(trifluoromethyl)phenol]
≤ 100 nM | Cn1nc(-c2cc(C(F)(F)F)c(F)c(O)c2F)c2cnc(N3CCOCC3Cc3ccncc3)nc21 (centres unmarked) [Compound 15.08, 2,6-Difluoro-3-(1-methyl-6-(3-(pyridin-4-ylmethyl)morpholino)-1H-pyrazolo[3,4-d]pyrimidin-3-yl)-5-(trifluoromethyl)phenol]
≤ 100 nM | Cn1nc(-c2cc(C(F)(F)F)c(F)c(O)c2F)c2cnc(N3CCOC[C@H]3C(C)(C)O)nc21 [Compound 15.13, (S)-2,6-Difluoro-3-(6-(3-(2-hydroxypropan-2-yl)morpholino)-1-methyl-1H-pyrazolo[3,4-d]pyrimidin-3-yl)-5-(trifluoromethyl)phenol]

The next lines start with the compound.

Compound | IC50
Cn1nc(-c2cc(C(F)(F)F)c(F)c(O)c2F)c2cnc(N3CCN(S(C)(=O)=O)CC3CC3CCCCC3)nc21 (centres unmarked) [Compound 15, 3-(6-(2-(Cyclohexylmethyl)-4-(methylsulfonyl)piperazin-1-yl)-1-methyl-1H-pyrazolo[3,4-d]pyrimidin-3-yl)-2,6-difluoro-5-(trifluoromethyl)phenol] | ≤ 100 nM
Cn1nc(-c2cc(C(F)(F)F)c(F)c(O)c2F)c2cnc(N3CCN(S(C)(=O)=O)C[C@H]3CC3CCCCC3)nc21 [Compound 15.02, (R)-3-(6-(2-(Cyclohexylmethyl)-4-(methylsulfonyl)piperazin-1-yl)-1-methyl-1H-pyrazolo[3,4-d]pyrimidin-3-yl)-2,6-difluoro-5-(trifluoromethyl)phenol] | ≤ 100 nM
Cn1nc(-c2cc(C(F)(F)F)c(F)c(O)c2F)c2cnc(N3CCOCC3CC3CCCCC3)nc21 (centres unmarked) [Compound 15.03, 3-(6-(3-(Cyclohexylmethyl)morpholino)-1-methyl-1H-pyrazolo[3,4-d]pyrimidin-3-yl)-2,6-difluoro-5-(trifluoromethyl)phenol] | ≤ 100 nM
Cn1nc(-c2cc(C(F)(F)F)c(F)c(O)c2F)c2cnc(N3CC(=O)NC[C@H]3Cc3ccccc3)nc21 [Compound 15.09, (R)-5-Benzyl-4-(3-(2,4-difluoro-3-hydroxy-5-(trifluoromethyl)phenyl)-1-methyl-1H-pyrazolo[3,4-d]pyrimidin-6-yl)piperazin-2-one] | ≤ 100 nM
Cn1nc(-c2cc(C(F)(F)F)c(F)c(O)c2F)c2cnc(N3CC[C@@H]3Cc3ccccc3)nc21 [Compound 15.11, (S)-3-(6-(2-Benzylazetidin-1-yl)-1-methyl-1H-pyrazolo[3,4-d]pyrimidin-3-yl)-2,6-difluoro-5-(trifluoromethyl)phenol] | ≤ 100 nM
CCn1nc(-c2cc(C(F)(F)F)c(F)c(O)c2F)c2cnc(N3CCOC[C@H]3Cc3ccccc3)nc21 [Compound 15.12, (R)-3-(6-(3-Benzylmorpholino)-1-ethyl-1H-pyrazolo[3,4-d]pyrimidin-3-yl)-2,6-difluoro-5-(trifluoromethyl)phenol] | ≤ 100 nM
